US20090169538A1, “Methods of Treating or Preventing Tissue Damage Caused by Increased Blood Flow” (REGENERX BIOPHARMACEUTICALS, INC., priority 2006, published 2009)

System: embryonic heart explants
Type: cell-based
Details: explants in presence of thymosin β4 with 100 nM wortmanin, p<0.05
Excerpt: To test the effects of secreted thymosin β4 on cardiac cell migration, an embryonic heart explant system designed to assay cell migration and transformation events on a three-dimensional collagen gel was utilized. In this assay, explants of adjacent embryonic myocardium and endocardium from valve-forming regions were placed on a collagen gel with the endocardium adjacent to the collagen.
Outflow tract was dissected from E11.5 wild type mouse embryos and placed on collagen matrices as previously described. After 10 hours of attachment explants were incubated in 30 ng/300 μl thymosin β4 in PBS, PBS alone or thymosin β4 and 100 nM wortmanin. Cultures were carried out for 3-9 days at 37° C. 5% CO2 and fixed in 4% paraformaldehyde in PBS for 10 min at RT. Cells were counted for quantification of migration and distance using at least three separate explants under each condition for endothelial migration and eight separate explants for myocardial migration.
Paraformaldehyde-fixed explants were permeabilized for 10 min at RT with Permeabilize solution (10 mM PIPES pH6.8; 50 mMNaCl; 0.5% Triton X-100; 300 mM Sucrose; 3 mM MgCl2) and rinsed with PBS 2×5 min at RT. After a series of blocking and rinsing steps, detection antibodies were used and explants rinsed and incubated with Equilibration buffer (Anti-Fade kit) 10 min at room temperature. Explants were scooped to a glass microscope slide, covered, and examined by fluorescein microscopy. TUNEL assay was performed using ApopTag Plus Fluorescein In Situ Apoptosis detection kit (Intergen Company # S7111) as recommended.

## COC[C@H]1OC(=O)c2coc3c2[C@@]1(C)C1=C(C3=O)[C@@H]2CCC(=O)[C@@]2(C)C[C@H]1OC(C)=O [wortmanin, reference compound]
  beating frequency upon inhibition of ILK: significant reduction
  myocardial cell migration upon inhibition of ILK: significant reduction
